Source: US11331351B2, “Bacillus strains improving health and performance of production animals” (priority 2015, dated 2022)
Converted amounts (≈) assume the structure as drawn. Read-outs that look alike come from different tables or passages of the source. Bridge positions count the residues as written; N and C are the ends. Square brackets hold non-standard residues; d marks the D form. Peptide text beside a SMILES is read from it. * marks the point of attachment. Ileψ(thiazoline)Cys = CC[C@H](C)[C@H](N)C1=N[C@H](C(=O)*)CS1; dOrn = NCCC[C@@H](N)C(=O)O

Tests used:
B. subtilis DSM 29871 [1] = assay type: cell-based, Bacillus subtilis; details: for MIC: Bacillus subtilis
[2] = tested on: B. amyloliquefaciens DSM 29869; assay type: cell-based, Bacillus amyloliquefaciens; details: for MIC: Bacillus amyloliquefaciens
B. subtilis DSM 29870 [3] = assay type: cell-based, Bacillus subtilis; details: for MIC: Bacillus subtilis
B. subtilis DSM 29871 [4] = details: EFSA Journal 2012; 10(6): 2740; cited from earlier work
[5] = tested on: B. amyloliquefaciens DSM 29869; details: EFSA Journal 2012; 10(6): 2740; cited from earlier work
B. subtilis DSM 29870 [6] = details: EFSA Journal 2012; 10(6): 2740; cited from earlier work
Clostridium perfringens = assay type: in vivo, broiler chickens Cobb×Cobb; details: bacitracin 50 ppm; for Lesion score (d 21): 0 to 3 score; for BWG (g/bird) (d 1-d 28) / Dead birds with necrotic enteritis lesions (%) (d 1-d 28) / FCR (d 1-d 28) / Total mortality (%) (d 1-d 28): infected
[7] = DSM29871, biological replicate MIC 1, 37° C., 20-24 h, read-out: MIC 1
[8] = DSM29871, biological replicate MIC 2, 37° C., 20-24 h, read-out: MIC 2
[9] = DSM29871, biological replicate MIC 3, 37° C., 20-24 h, read-out: MIC 3
[10] = DSM29869, biological replicate MIC 1, 37° C., 20-24 h, read-out: MIC 1
[11] = DSM29869, biological replicate MIC 2, 37° C., 20-24 h, read-out: MIC 2
[12] = DSM29869, biological replicate MIC 3, 37° C., 20-24 h, read-out: MIC 3
[13] = DSM29870, biological replicate MIC 1, 37° C., 20-24 h, read-out: MIC 1
[14] = DSM29870, biological replicate MIC 2, 37° C., 20-24 h, read-out: MIC 2
[15] = DSM29870, biological replicate MIC 3, 37° C., 20-24 h, read-out: MIC 3
[16] = biological replicate MIC 1, 37° C., 20-24 h
[17] = Trial 1, DSM 29870 1.10^9 CFU/kg of feed
[18] = Trial 2, DSM 29870 5.10^8 CFU/kg of feed
[19] = Trial 3, DSM 29870 5.10^8 CFU/kg of feed
[20] = biological replicate MIC 2, 37° C., 20-24 h
[21] = biological replicate MIC 3, 37° C., 20-24 h

## CCC[C@@H]1C[C@@H](C(=O)N[C@@H]([C@H]2O[C@H](SC)[C@H](O)[C@@H](O)[C@H]2O)[C@H](C)Cl)N(C)C1 [Clindamycin]
B. subtilis DSM 29871 [1]; [7]
  MIC: 0.5 µg/mL (≈ 1.18 µM)
B. subtilis DSM 29871 [1]; [8]
  MIC: 0.25 µg/mL (≈ 0.588 µM)
B. subtilis DSM 29871 [1]; [9]
  MIC: 0.5 µg/mL (≈ 1.18 µM)
[2]; [10]
  MIC: 1 µg/mL (≈ 2.35 µM)
[2]; [11]
  MIC: 0.5 µg/mL (≈ 1.18 µM)
[2]; [12]
  MIC: 1 µg/mL (≈ 2.35 µM)
B. subtilis DSM 29870 [3]; [13]
  MIC: 0.25 µg/mL (≈ 0.588 µM)
B. subtilis DSM 29870 [3]; [14]
  MIC: 0.25 µg/mL (≈ 0.588 µM)
B. subtilis DSM 29870 [3]; [15]
  MIC: 0.25 µg/mL (≈ 0.588 µM)

## [H]/N=C(/N)N[C@H]1[C@H](O)[C@@H](O)[C@H](O[C@@H]2O[C@@H](C)[C@](O)(C=O)[C@H]2O[C@@H]2O[C@@H](CO)[C@H](O)[C@@H](O)[C@@H]2NC)[C@@H](N/C(N)=N\[H])[C@@H]1O [Streptomycin]
B. subtilis DSM 29871 [1]; [7]
  MIC: 32 µg/mL (≈ 55 µM)
B. subtilis DSM 29871 [1]; [8]
  MIC: 16 µg/mL (≈ 27.5 µM)
B. subtilis DSM 29871 [1]; [9]
  MIC: 32 µg/mL (≈ 55 µM)
[2]; [10]
  MIC: 2 µg/mL (≈ 3.44 µM)
[2]; [11]
  MIC: 4 µg/mL (≈ 6.88 µM)
[2]; [12]
  MIC: 4 µg/mL (≈ 6.88 µM)
B. subtilis DSM 29870 [3]; [13]
  MIC: 4 µg/mL (≈ 6.88 µM)
B. subtilis DSM 29870 [3]; [14]
  MIC: 4 µg/mL (≈ 6.88 µM)
B. subtilis DSM 29870 [3]; [15]
  MIC: 8 µg/mL (≈ 13.8 µM)
B. subtilis DSM 29871 [4]
  EFSA breakpoints: 8 µg/mL
[5]
  EFSA breakpoints: 8 µg/mL
B. subtilis DSM 29870 [6]
  EFSA breakpoints: 8 µg/mL

## CN(C)[C@@H]1C(O)=C(C(N)=O)C(=O)[C@@]2(O)C(O)=C3C(=O)c4c(O)cccc4[C@@](C)(O)[C@H]3C[C@@H]12 [Tetracycline]
B. subtilis DSM 29871 [1]; [7]
  MIC: 2 µg/mL (≈ 4.5 µM)
B. subtilis DSM 29871 [1]; [8]
  MIC: 4 µg/mL (≈ 9 µM)
B. subtilis DSM 29871 [1]; [9]
  MIC: 4 µg/mL (≈ 9 µM)
[2]; [10]
  MIC: 16 µg/mL (≈ 36 µM)
[2]; [11]
  MIC: 8 µg/mL (≈ 18 µM)
[2]; [12]
  MIC: 8 µg/mL (≈ 18 µM)
[2]; [16]
  MIC 1: 16 µg/mL (≈ 36 µM)
B. subtilis DSM 29870 [3]; [13]
  MIC: 0.25 µg/mL (≈ 0.563 µM)
B. subtilis DSM 29870 [3]; [14]
  MIC: 0.25 µg/mL (≈ 0.563 µM)
B. subtilis DSM 29870 [3]; [15]
  MIC: 0.25 µg/mL (≈ 0.563 µM)

## CC[C@H](C)[C@H](N)C1=N[C@H](C(=O)N[C@@H](CC(C)C)C(=O)N[C@H](CCC(=O)O)C(=O)N[C@H](C(=O)N[C@H]2CCCCNC(=O)[C@H](CC(N)=O)NC(=O)[C@@H](CC(=O)O)NC(=O)[C@H](Cc3cnc[nH]3)NC(=O)[C@@H](Cc3ccccc3)NC(=O)[C@H]([C@@H](C)CC)NC(=O)[C@@H](CCCN)NC2=O)[C@@H](C)CC)CS1 [bacitracin] ({Ileψ(thiazoline)Cys}-L[dE]IK[dOrn]I[dF]H[dD]N; lactam 4-C)
Clostridium perfringens; [17]
  Lesion score (d 21): 0.2a
  BWG (g/bird) (d 1-d 28): 633ab g/bird
  Dead birds with necrotic enteritis lesions (%) (d 1-d 28): 1.6b %
  FCR (d 1-d 28): 1.813bc
  Total mortality (%) (d 1-d 28): 5.0b %
Clostridium perfringens; [18]
  Lesion score (d 21): 0.6b
  BWG (g/bird) (d 1-d 28): 665ab g/bird
  Dead birds with necrotic enteritis lesions (%) (d 1-d 28): 6.3c %
  FCR (d 1-d 28): 1.759b
  Total mortality (%) (d 1-d 28): 12.5bc %
Clostridium perfringens; [19]
  Lesion score (d 21): 0.6a
  BWG (g/bird) (d 1-d 28): 645a g/bird
  Dead birds with necrotic enteritis lesions (%) (d 1-d 28): 4.7bc %
  FCR (d 1-d 28): 1.786bc
  Total mortality (%) (d 1-d 28): 15.0a %

## CC[C@H]1OC(=O)[C@H](C)[C@@H](O[C@H]2C[C@@](C)(OC)[C@@H](O)[C@H](C)O2)[C@H](C)[C@@H](O[C@@H]2O[C@H](C)C[C@H](N(C)C)[C@H]2O)[C@](C)(O)C[C@@H](C)C(=O)[C@H](C)[C@@H](O)[C@]1(C)O [Erythromycin]
B. subtilis DSM 29871 [1]; [7]
  MIC: 0.125 µg/mL (≈ 0.17 µM)
B. subtilis DSM 29871 [1]; [8]
  MIC: 0.125 µg/mL (≈ 0.17 µM)
B. subtilis DSM 29871 [1]; [9]
  MIC: 0.125 µg/mL (≈ 0.17 µM)
[2]; [10]
  MIC: 0.5 µg/mL (≈ 0.681 µM)
[2]; [11]
  MIC: 0.06 µg/mL (≈ 0.0818 µM)
[2]; [12]
  MIC: 0.06 µg/mL (≈ 0.0818 µM)
B. subtilis DSM 29870 [3]; [13]
  MIC: 0.125 µg/mL (≈ 0.17 µM)
B. subtilis DSM 29870 [3]; [14]
  MIC: 0.125 µg/mL (≈ 0.17 µM)
B. subtilis DSM 29870 [3]; [15]
  MIC: 0.125 µg/mL (≈ 0.17 µM)
B. subtilis DSM 29871 [4]
  EFSA breakpoints: 4 µg/mL
[5]
  EFSA breakpoints: 4 µg/mL
B. subtilis DSM 29870 [6]
  EFSA breakpoints: 4 µg/mL

## Gentamycin
B. subtilis DSM 29871 [1]; [16]
  MIC 1: 0.25 µg/mL
B. subtilis DSM 29871 [1]; [20]
  MIC 2: 0.125 µg/mL
B. subtilis DSM 29871 [1]; [21]
  MIC 3: 0.25 µg/mL
[2]; [16]
  MIC 1: 0.5 µg/mL
[2]; [20]
  MIC 2: 0.125 µg/mL
[2]; [21]
  MIC 3: 0.06 µg/mL
B. subtilis DSM 29870 [3]; [16]
  MIC 1: 0.25 µg/mL
B. subtilis DSM 29870 [3]; [20]
  MIC 2: 0.125 µg/mL
B. subtilis DSM 29870 [3]; [21]
  MIC 3: 0.25 µg/mL
B. subtilis DSM 29871 [4]
  EFSA breakpoints: 4 µg/mL
[5]
  EFSA breakpoints: 4 µg/mL
B. subtilis DSM 29870 [6]
  EFSA breakpoints: 4 µg/mL

## NC[C@H]1O[C@H](O[C@H]2[C@H](O)[C@@H](O[C@H]3O[C@H](CO)[C@@H](O)[C@H](N)[C@H]3O)[C@H](N)C[C@@H]2N)[C@H](O)[C@@H](O)[C@@H]1O [Kanamycin]
B. subtilis DSM 29871 [1]; [7]
  MIC: 2 µg/mL (≈ 4.13 µM)
B. subtilis DSM 29871 [1]; [8]
  MIC: 1 µg/mL (≈ 2.06 µM)
B. subtilis DSM 29871 [1]; [9]
  MIC: 2 µg/mL (≈ 4.13 µM)
[2]; [10]
  MIC: 2 µg/mL (≈ 4.13 µM)
[2]; [11]
  MIC: 0.5 µg/mL (≈ 1.03 µM)
[2]; [12]
  MIC: 0.5 µg/mL (≈ 1.03 µM)
B. subtilis DSM 29870 [3]; [13]
  MIC: 2 µg/mL (≈ 4.13 µM)
B. subtilis DSM 29870 [3]; [14]
  MIC: 1 µg/mL (≈ 2.06 µM)
B. subtilis DSM 29870 [3]; [15]
  MIC: 2 µg/mL (≈ 4.13 µM)

## CN[C@H](CC(C)C)C(=O)N[C@H]1C(=O)N[C@@H](CC(N)=O)C(=O)N[C@H]2C(=O)N[C@H]3C(=O)N[C@H](C(=O)N[C@H](C(=O)O)c4cc(O)cc(O)c4-c4cc3ccc4O)[C@H](O)c3ccc(c(Cl)c3)Oc3cc2cc(c3O[C@@H]2O[C@H](CO)[C@@H](O)[C@H](O)[C@H]2O[C@H]2C[C@](C)(N)[C@H](O)[C@H](C)O2)Oc2ccc(cc2Cl)[C@H]1O [Vancomycin]
B. subtilis DSM 29871 [1]; DSM29871, read-out: MIC 2
  MIC: 0.25 µg/mL (≈ 0.173 µM)
B. subtilis DSM 29871 [1]; DSM29871, read-out: MIC 3
  MIC: 0.25 µg/mL (≈ 0.173 µM)
B. subtilis DSM 29871 [1]; [7]
  MIC: 0.25 µg/mL (≈ 0.173 µM)
[2]; DSM29869, read-out: MIC 2
  MIC: 0.25 µg/mL (≈ 0.173 µM)
[2]; [10]
  MIC: 0.25 µg/mL (≈ 0.173 µM)
[2]; [12]
  MIC: 0.25 µg/mL (≈ 0.173 µM)
B. subtilis DSM 29870 [3]; DSM29870, read-out: MIC 2
  MIC: 0.25 µg/mL (≈ 0.173 µM)
B. subtilis DSM 29870 [3]; DSM29870, read-out: MIC 3
  MIC: 0.25 µg/mL (≈ 0.173 µM)
B. subtilis DSM 29870 [3]; [13]
  MIC: 0.25 µg/mL (≈ 0.173 µM)
B. subtilis DSM 29871 [4]
  EFSA breakpoints: 4 µg/mL
[5]
  EFSA breakpoints: 4 µg/mL
B. subtilis DSM 29870 [6]
  EFSA breakpoints: 4 µg/mL

## O=C(N[C@H](CO)[C@H](O)c1ccc([N+](=O)[O-])cc1)C(Cl)Cl [Chloramphenicol]
B. subtilis DSM 29871 [1]; [7]
  MIC: 8 µg/mL (≈ 24.8 µM)
B. subtilis DSM 29871 [1]; [8]
  MIC: 4 µg/mL (≈ 12.4 µM)
B. subtilis DSM 29871 [1]; [9]
  MIC: 8 µg/mL (≈ 24.8 µM)
[2]; [10]
  MIC: 4 µg/mL (≈ 12.4 µM)
[2]; [11]
  MIC: 4 µg/mL (≈ 12.4 µM)
[2]; [12]
  MIC: 4 µg/mL (≈ 12.4 µM)
B. subtilis DSM 29870 [3]; [13]
  MIC: 4 µg/mL (≈ 12.4 µM)
B. subtilis DSM 29870 [3]; [14]
  MIC: 8 µg/mL (≈ 24.8 µM)
B. subtilis DSM 29870 [3]; [15]
  MIC: 4 µg/mL (≈ 12.4 µM)
B. subtilis DSM 29871 [4]
  EFSA breakpoints: 8 µg/mL
[5]
  EFSA breakpoints: 8 µg/mL
B. subtilis DSM 29870 [6]
  EFSA breakpoints: 8 µg/mL
